Test results published in US6806230B1, “Pyrimidine derivatives and herbicides containing them” (Kumiai Chemical Industry Co., Ltd., priority 1999, dated 2004).

How the values were obtained:
Format in all cases: in vivo
monochoria (Mo) [1] = assay: Test Example 1: herbicidal effects by flooded paddy field treatment; design: herbicidal effects, Mo (monochoria):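 0-5 growth inhibition grade; 5 = over 90%; 4 = 70-90%; 3 = 50-70%; 2 = 30-50%; 1 = 10-30%; 0 = under 10%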; details: dose 100 g active ingredient per 10 ares, examined on the 21st day after treatment, standards of Table 44
How it was run: (§1)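 Herbicidal effect is a graded score assigned 21 days after treatment. Application was one day after sowing into flooded (3 cm) puddled paddy soil, with diluted wettable powder dropped onto the water at 100 g active ingredient per 10 ares. Plants were kept in a greenhouse.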

monochoria (Mo) [2] = assay: Test Example 4: selectivity for a crop plant by flooded paddy field treatment; design: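 0-5 growth inhibition grade; 5 = over 90%; 4 = 70-90%; 3 = 50-70%; 2 = 30-50%; 1 = 10-30%; 0 = under 10%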; details: monochoria, dose 25 gai/10a, 21st day after treatment, index per Table 44
Procedure: (§2) In a 100 cm^2 plastic pot, a paddy field soil was filled and paddled. Then, seeds of barnyard grass (Eo) and monochoria (Mo) were sown, and rice (Or) of second leaf stage was transplanted, and water was introduced to a depth of 3 cm. Next day, a wettable powder prepared in accordance with Formulation Example 1 was diluted with water and dropwise applied to the water surface. The dose was 25 g of the active ingredient per 10 ares. Thereafter, cultivation was carried out in a green house, and on the 21st day after the treatment, the herbicidal effects were examined in accordance with the standards of Table 44.

rice (Or) = assay: as above; design: scale not given here; details: rice transplanted at second leaf stage, dose 25 gai/10a, 21st day after treatment, index per Table 44
Procedure: as §2

barnyard grass (Eo) [3] = assay: as above; design: scale not given here; details: barnyard grass, dose 25 gai/10a, 21st day after treatment, index per Table 44
Procedure: as §2

barnyard grass (Ec) = assay: Test Example 2: herbicidal effects by upland soil treatment; design: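 0-5 growth inhibition grade; 5 = over 90%; 4 = 70-90%; 3 = 50-70%; 2 = 30-50%; 1 = 10-30%; 0 = under 10%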; details: dose 100 g active ingredient per 10 ares, examined on the 21st day after treatment
How it was run: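 Pre-emergence test: barnyard grass and green foxtail sown in upland soil, then soil surface sprayed with wettable-powder formulation at 100 g active ingredient per 10 ares (100 l per 10 ares). Grown in greenhouse; herbicidal effect scored on a rating scale 21 days after treatment.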

barnyard grass (Eo) [4] = assay: Test Example 1: herbicidal effects by flooded paddy field treatment; design: herbicidal effects, Eo (barnyard grass):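 0-5 growth inhibition grade; 5 = over 90%; 4 = 70-90%; 3 = 50-70%; 2 = 30-50%; 1 = 10-30%; 0 = under 10%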; details: dose 100 g active ingredient per 10 ares, examined on the 21st day after treatment, standards of Table 44
How it was run: as §1

Row | Compound | herbicidal effects, Mo (monochoria) (monochoria (Mo) [1]) | Mo (herbicidal effect index) (monochoria (Mo) [2]) | Or (herbicidal effect index on crop) (rice (Or)) | Eo (herbicidal effect index) (barnyard grass (Eo) [3]) | Ec (herbicidal effects, index) (barnyard grass (Ec)) | herbicidal effects, Eo (barnyard grass) (barnyard grass (Eo) [4])
1 | CON=Cc1ncncc1C(C(C)C)N(C)C(=O)Cc1ccc(Cl)cc1 (racemic) [1-498] | 5 | 5 | 0 | 5 | 5 | 5
2 | C=CCN(C(=O)Cc1ccc(Cl)cc1)C(c1cncnc1C(F)(F)F)C(C)C (racemic) [1-520] | 5 | 5 | 1 | 5 | 5 | 5
3 | CN(C(=O)Cc1ccc(Cl)s1)C(c1ccccc1)c1cncnc1C(F)(F)F (racemic) [2-31] | 5 | 5 | 0 | 5 | 5 | 5
4 | CN(C(=O)Cc1ccc(F)cc1)C(c1cccs1)c1cncnc1C(F)(F)F (racemic) [1-234] | 5 | 5 | 1 | 5 | 5 | 5
5 | CN(C(=O)Cc1ccc(Cl)s1)C(c1cncnc1C(F)(F)F)C1(C)CC1 (racemic) [2-58] | 5 | 5 | 1 | 5 | 5 | 5
6 | CC(C)C(c1cncnc1C(F)(F)F)N(C)S(=O)(=O)c1ccc(Cl)cc1 (racemic) [4-1] | 5 | 5 | 1 | 5 | 5 | 5
7 | CN(C(=O)Cc1ccsc1)C(c1cncnc1C(F)(F)F)C1(C)CC1 (racemic) [2-56] | 5 | 5 | 1 | 5 | 5 | 5
8 | C#CCN(C(=O)Cc1ccc(F)c(F)c1)C(c1cncnc1C(F)(F)F)C(C)C (racemic) [1-614] | 5 | 5 | 1 | 5 | 5 | 5
9 | C#CCN(C(=O)Cc1ccccc1)C(c1cncnc1CC)C(C)(C)C (racemic) [1-626] | 5 | 5 | 1 | 5 | 5 | 5
10 | CON=CC(c1cncnc1C(C)C)N(C)C(=O)Cc1ccc(C)cc1 (racemic) [1-465] | 5 | 5 | 0 | 5 | 5 | 5
11 | CN(C(=O)Cc1ccsc1)C(c1ccccc1)c1cncnc1C(F)(F)F (racemic) [2-20] | 5 | 5 | 1 | 5 | 5 | 5
12 | C#CCN(C(=O)Cc1ccc(Cl)cc1)C(CCC)c1cncnc1CC (racemic) [1-608] | 5 | 5 | 1 | 5 | 5 | 5
